Assay results from publication PMC5874699, “Antimicrobial and Antibiofilm Activity of UP-5, an Ultrashort Antimicrobial Peptide Designed Using Only Arginine and Biphenylalanine” (Pharmaceuticals, 2018).
Read-outs that look alike come from different tables or passages of the source. Square brackets hold non-standard residues; d marks the D form. Peptide text beside a SMILES is read from it. Bip = N[C@@H](Cc1ccc(-c2ccccc2)cc1)C(=O)O

Tested on: S. aureus (ATCC 33591) biofilm
Assay type: cell-based, Staphylococcus aureus
Conditions: for Viable Biofilm Cells (%): 4 h treatment 37 °C, 8 h recovery, colony count
Method: Biofilm formation relied on a published protocol employing the Calgary biofilm device (Innovotech, Edmonton, AB, Canada). Briefly, S. aureus (ATCC 33591) bacterial strain was incubated in MHB and cultures were diluted in the same medium to achieve a concentration of 10^5 CFU/mL. Next, diluted bacterial suspension (150 µL) was added to the sterile 96 peg-lids on which biofilm cells can build up. Negative control lanes were prepared by adding 150 µL MHB to six wells. And then the pegs were incubated for 14–16 h under rotation of 125 rpm at 37 °C to allow biofilm formation on the purpose designed pegs. The pegs were rinsed twice with phosphate-buffered saline (PBS) to remove planktonic cells as a washing step. Each peg-lid was then transferred into a “challenge 96-well microtiter plate” containing 200 μL of different peptides concentrations and the peg-lids containing the biofilms were incubated for four hours at 37 °C under rotation at 125 rpm. After biofilm treatment with the challenge plate, the biofilms were re-washed twice with PBS then transferred into the recovery plate for eight hours. The minimum biofilm eradication concentration MBEC value is defined as the minimum concentration needed to inhibit the re-growth of biofilms after four hours of peptide treatment, washing twice with PBS and incubating in pre-sterilized MHB (recovery plate) for 8 h, using an ELISA plate reader λ = 600 nm. Additionally, the biofilms were assessed for their minimum bactericidal concentration (MBECb), this assay was conducted similar to MBC assay (see Section 2.4.1). MBECb parameter is defined as the lowest concentration able to eradicate 3log^10 of the viable microorganisms in a biofilm (99.9% killing) after 8 h of incubation in recovery plates using the colony count method.

N=C(N)NCCC[C@H](NC(=O)[C@H](Cc1ccc(-c2ccccc2)cc1)NC(=O)[C@H](CCCNC(=N)N)NC(=O)[C@H](Cc1ccc(-c2ccccc2)cc1)NC(=O)[C@@H](N)CCCNC(=N)N)C(=O)O [UP-5] (H-R[Bip]R[Bip]R-OH)
MBEC value (minimum biofilm eradication concentration) (ATCC 33591, 4 h): 20 µM | MBCb (MBECb), minimum bactericidal concentration against biofilm cells (ATCC 33591, 8 h): 20 µM | Viable Biofilm Cells (%) (peptide concentration 10 μM): 0.35% | Viable Biofilm Cells (%) (peptide concentration 20 μM): 0.108% | Viable Biofilm Cells (%) (peptide concentration 30 μM): 0.054% | Viable Biofilm Cells (%) (peptide concentration 40 μM): 0% | Viable Biofilm Cells (%) (peptide concentration 60 μM): 0% | Viable Biofilm Cells (%) (peptide concentration 80 μM): 0% | Viable Biofilm Cells (%) (peptide concentration 100 μM, compared to untreated biofilm): 0%
